Consider 1 compound from ChEMBL document CHEMBL5729105, “CD73 inhibitors” (2022).

In general, IC50 refers to the concentration needed to halve the response being measured. Low readings indicate higher potency, high ones lower potency.

The assay addresses 5'-nucleotidase (Homo sapiens, UniProt P21589). The assay is described as follows: Biochemical Assay: Assay Reaction ConditionsAssay Volume: 70 μlReaction Volume: 50 μlCD73: 0.3208 nMAMP: 15 μMAssay Buffer: 25 mM Tris-HCL, pH 7.4, 0.01% Brij-35, 0.01% BSA, 5 mM MgCl2Assay Procedure:Used 384 clear plate.Made dose titration of testing compounds in assay buffer, 10 points ½ log titrations in duplicates starting at 100 μM.Added 25 μl of CD73 to each well for a final concentration of 320 pM.Incubated at RT for 15 min.Added 25 μl of AMP to each well for a final concentration of 15 μM.Incubated at RT for 10 min.Added 10 μl of Malachite Green Reagent A, incubate at RT for 10 min.Added 10 of Malachite Green Reagent B, incubate at RT for 45 min.Read the Absorbance on Envision plate reader using excitation filter: Cy5 620 nM.The ability of the compounds disclosed herein to inhibit CD73 activity was quantified and the respective IC50 values were determined.

Chain of 5'-nucleotidase (P21589 whole entry): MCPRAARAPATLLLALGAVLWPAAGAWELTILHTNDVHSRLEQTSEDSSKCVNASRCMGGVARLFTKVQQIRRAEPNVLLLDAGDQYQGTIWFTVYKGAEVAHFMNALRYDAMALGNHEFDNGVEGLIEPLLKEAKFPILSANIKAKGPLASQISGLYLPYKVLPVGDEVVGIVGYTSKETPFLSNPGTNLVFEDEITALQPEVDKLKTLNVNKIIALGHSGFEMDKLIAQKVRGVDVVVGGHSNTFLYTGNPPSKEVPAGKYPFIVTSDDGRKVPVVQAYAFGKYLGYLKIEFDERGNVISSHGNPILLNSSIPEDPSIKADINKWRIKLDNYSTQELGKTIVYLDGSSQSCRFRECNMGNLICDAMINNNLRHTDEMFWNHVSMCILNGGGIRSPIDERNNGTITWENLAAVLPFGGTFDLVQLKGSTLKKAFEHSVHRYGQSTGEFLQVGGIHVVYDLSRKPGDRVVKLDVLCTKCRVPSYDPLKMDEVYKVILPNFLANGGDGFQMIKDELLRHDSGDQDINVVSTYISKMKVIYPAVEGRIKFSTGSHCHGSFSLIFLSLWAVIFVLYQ

For the compound `O=P(O)(O)[C@H](CO)OC[C@H]1O[C@@H](n2ncc3c(NC4CCCC4)nc(Cl)nc32)[C@H](O)[C@@H]1O` (single isomer, unassigned), the IC50 was < 100 nM.
